The source of these data is US11767322B2 (BRISTOL-MYERS SQUIBB COMPANY, priority 2020, dated 2023).

Where two headings read alike, the source gives them in different places. A value given as a limit tells only on which side of the number the result lay.

The target of test [1] is T1, His-GST-TVMV-hRIPK1(1-324) (Homo sapiens, UniProt Q13546).
T1 construct: The coding region of human RIPK1(1-324) flanked by NdeI site at 5′ end; made in house; host or cells: Spodoptera frugiperda Sf9 insect cells (baculovirus, Bac-to-Bac)
T1 sequence (Q13546 1-324): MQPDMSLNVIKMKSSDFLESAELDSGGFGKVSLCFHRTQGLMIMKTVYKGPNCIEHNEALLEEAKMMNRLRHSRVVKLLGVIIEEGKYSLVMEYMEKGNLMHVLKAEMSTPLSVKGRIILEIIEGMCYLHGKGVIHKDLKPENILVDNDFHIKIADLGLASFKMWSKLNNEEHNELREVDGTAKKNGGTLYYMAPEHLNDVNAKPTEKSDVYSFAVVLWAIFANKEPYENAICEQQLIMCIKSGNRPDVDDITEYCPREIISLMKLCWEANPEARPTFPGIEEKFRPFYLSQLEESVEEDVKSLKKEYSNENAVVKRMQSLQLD
Nature of the test: biochemical. The test is classed as binding.

Test [2] concerns MLKL phosphorylation in HT29-L23 human colorectal adenocarcinoma cells. Briefly: MLKL phosphorylation high-content assay. The format is cell-based.
[3] abbreviates: HTRF probe displacement, 1 h at rt, read-out: RIPK1 IC50.
[4] abbreviates: read-out: pMLKL IC50, HT29-L23 cells, necroptosis induced with TNFα, SMAC mimetic and Z-VAD, 6 h, maximal inhibition defined by Nec1s.
[5] abbreviates: Homo sapiens, 6 h, read-out: pMLKL IC50, HT29-L23 cells, necroptosis induced with TNFα, SMAC mimetic and Z-VAD, 6 h, maximal inhibition defined by Nec1s.

For `[2H]C([2H])([2H])c1ccc(C(O)C(F)(F)CNC(=O)c2c(C([2H])([2H])[2H])ccc(-c3ccn4nc(N)nc4c3)c2F)cc1` (single isomer, unassigned) [Example 201, 3-(2-amino-[1,2,4]triazolo[1,5-a]pyridin-7-yl)-N-(2,2-difluoro-3-hydroxy-3-(4-(methyl-d3)phenyl)propyl)-2-fluoro-6-(methyl-d3)benzamide], the IC50 in test [1] (setting [3]) turned out to be 6.7 nM; in test [2] (setting [4]) it was 0.9 nM.

In the case of `Cc1ccc(-c2ccn3nc(N)nc3c2C)c(F)c1C(=O)NCC[C@H](O)c1ccc(Cl)cc1` [compound 134], the results for the IC50 in test [1] (setting [3]) and in test [2] (setting [5]) were 2.9 nM and 1.5 nM, respectively.

Regarding `Nc1nc2cc(-c3ccc(Cl)c(C(=O)NCC(F)(F)C(O)c4cccc(C(F)(F)F)n4)c3F)ccn2n1` (single isomer, unassigned) [Example 255, 3-(2-amino-[1,2,4]triazolo[1,5-a]pyridin-7-yl)-6-chloro-N-(2,2-difluoro-3-hydroxy-3-(6-(trifluoromethyl)pyridin-2-yl)propyl)-2-fluorobenzamide], the results for the half-inhibitory concentration (IC50) in test [1] (setting [3]) and in test [2] (setting [4]) were 17 nM and 79 nM, respectively.

With `Cc1ccc(-c2ccn3nc(N)nc3c2)c(F)c1C(=O)NCCC(O)c1cccc(Cl)c1` (single isomer, unassigned) [Example 45, 3-(2-amino-[1,2,4]triazolo[1,5-a]pyridin-7-yl)-N-(3-(3-chlorophenyl)-3-hydroxypropyl)-2-fluoro-6-methylbenzamide], the IC50 was 3 nM in test [1] (setting [3]) and 7.4 nM in test [2] (setting [4]).

`Nc1nc2cc(-c3ccc(Cl)c(C(=O)NCC(F)(F)C(O)c4cccc(Cl)c4F)c3F)ccn2n1` (single isomer, unassigned) [Example 171, 3-(2-amino-[1,2,4]triazolo[1,5-a]pyridin-7-yl)-6-chloro-N-(3-(3-chloro-2-fluorophenyl)-2,2-difluoro-3-hydroxypropyl)-2-fluorobenzamide]: the IC50 amounted to 1.6 nM in test [1] (setting [3]) and 10 nM in test [2] (setting [4]).

Turning to `Nc1nc2cc(-c3ccc(Cl)c(C(=O)NCC(F)(F)C(O)c4cccc(F)c4)c3F)ccn2n1` (single isomer, unassigned) [Example 169, 3-{2-amino-[1,2,4]triazolo[1,5-a]pyridin-7-yl}-6-chloro-N-[2,2-difluoro-3-(3-fluorophenyl)-3-hydroxypropyl]-2-fluorobenzamide], the IC50 worked out at 0.9 nM in test [1] (setting [3]) and 28 nM in test [2] (setting [4]).

Consider `Cc1ccc(-c2ccn3nc(N)nc3c2)c(F)c1C(=O)NCC(F)(F)C(OP(=O)(O)O)c1ccc(F)cc1` (racemic) [Example 161, 3-(3-(2-amino-[1,2,4]triazolo[1,5-a]pyridin-7-yl)-2-fluoro-6-methylbenzamido)-2,2-difluoro-1-(4-fluorophenyl)propyl dihydrogen phosphate, racemate], for which the results for the IC50 in test [1] (setting [3]) and in test [2] (setting [5]) were > 15000 nM and 135 nM, respectively.

Turning to `[2H]C([2H])([2H])c1ccc(-c2ccn3nc(N)nc3c2)c(F)c1C(=O)NCC1(C(O)c2ccc(F)cc2)CC1` (single isomer, unassigned) [Example 307, 3-(2-amino-[1,2,4]triazolo[1,5-a]pyridin-7-yl)-2-fluoro-N-((1-((4-fluorophenyl) (hydroxy)methyl)cyclopropyl)methyl)-6-(methyl-d3)benzamide], the IC50 worked out at 9.6 nM in test [1] (setting [3]) and 14 nM in test [2] (setting [5]).

`[2H]C([2H])([2H])C(O)(c1ccc(F)cc1)C(F)CNC(=O)c1c(C(F)F)ccc(-c2ccn3nc(N)nc3c2)c1F` (single isomer, unassigned) [Example 195, 3-(2-amino-[1,2,4]triazolo[1,5-a]pyridin-7-yl)-6-(difluoromethyl)-2-fluoro-N-(2-fluoro-3-(4-fluorophenyl)-3-hydroxybutyl-4,4,4-d3)benzamide]: the half-inhibitory concentration (IC50) in test [1] (setting [3]) stood at 8.4 nM; in test [2] (setting [5]), 1 nM.

Consider `Cc1ccc(-c2ccn3nc(N)nc3c2)c(F)c1C(=O)NCC(O)C(F)(F)c1ccc(F)cc1` (single isomer, unassigned) [Example 290, 3-(2-amino-[1,2,4]triazolo[1,5-a]pyridin-7-yl)-N-(3,3-difluoro-3-(4-fluorophenyl)-2-hydroxypropyl)-2-fluoro-6-methylbenzamide], for which the 50% inhibitory concentration (IC50) in test [1] (setting [3]) amounted to 4.8 nM; in test [1] (Table 22, compounds of the present invention, read-out: RPIK1 IC50), 4.8 nM; in test [2] (setting [4]) it was 0.5 nM; in test [2] (read-out: pMLKL IC50, Table 22, compounds of the present invention), 0.5 nM.

As for `Cc1ccc(-c2ccn3nc(N)nc3c2)c(F)c1C(=O)NCC(F)(F)C(O)c1c(F)cc(F)cc1F` (single isomer, unassigned) [Example 283, 3-(2-amino-[1,2,4]triazolo[1,5-a]pyridin-7-yl)-N-(2,2-difluoro-3-hydroxy-3-(2,4,6-trifluorophenyl)propyl)-2-fluoro-6-methylbenzamide], the IC50 in test [1] (setting [3]) is 0.5 nM; in test [2] (setting [5]), 1 nM.

Turning to `Nc1nc2cc(-c3ccc(Cl)c(C(=O)NCC(F)(F)C(O)c4cccc(Cl)n4)c3F)ccn2n1` (single isomer, unassigned) [Example 263, 3-(2-amino-[1,2,4]triazolo[1,5-a]pyridin-7-yl)-6-chloro-N-(3-(6-chloropyridin-2-yl)-2,2-difluoro-3-hydroxypropyl)-2-fluorobenzamide], the IC50 was found to be 21 nM in test [1] (setting [3]) and 48 nM in test [2] (setting [4]).

On to `[2H]C([2H])([2H])c1ccc(-c2ccn3nc(N)nc3c2)c(F)c1C(=O)NCC(F)(F)C(O)(c1ccc(F)cc1)C([2H])([2H])[2H]` (single isomer, unassigned) [Example 244, 3-(2-amino-[1,2,4]triazolo[1,5-a]pyridin-7-yl)-N-(2,2-difluoro-3-(4-fluorophenyl)-3-hydroxybutyl-4,4,4-d3)-2-fluoro-6-(methyl-d3)benzamide], for which the IC50 stood at 2.7 nM in test [1] (setting [3]) and 1.2 nM in test [2] (setting [4]).

With `Cc1ccc(-c2ccn3nc(N)nc3c2)c(F)c1C(=O)NCC(F)(F)[C@@H](O)c1ccc(F)cc1` (single isomer, unassigned) [Example 30], the IC50 in test [1] (setting [3]) came to 4.5 nM; in test [2] (setting [5]) it was 0.5 nM.

In the case of `[2H]C([2H])(CC([2H])(O)c1ccc(Cl)cc1)NC(=O)c1c(Cl)ccc(-c2ccn3nc(N)nc3c2)c1F` (single isomer, unassigned) [Example 77, 3-(2-amino-[1,2,4]triazolo[1,5-a]pyridin-7-yl)-6-chloro-N-(3-(4-chlorophenyl)-3-hydroxypropyl-1,1,3-d3)-2-fluorobenzamide], the IC50 in test [1] (setting [3]) was 2.9 nM; in test [2] (setting [4]), 7.7 nM.

Turning to `Nc1nc2cc(-c3ccc(Cl)c(C(=O)NCCC(O)c4ccc(C(F)(F)F)cc4)c3F)ccn2n1` (single isomer, unassigned) [Example 85, 3-(2-amino-[1,2,4]triazolo[1,5-a]pyridin-7-yl)-6-chloro-2-fluoro-N-(3-hydroxy-3-(4-(trifluoromethyl)phenyl)propyl)benzamide], the values for the IC50 in test [1] (setting [3]) and in test [2] (setting [4]) were 2.1 nM and 0.5 nM, respectively.

Regarding `[2H]C([2H])([2H])c1ccc(-c2ccn3nc(N)nc3c2)c(F)c1C(=O)NCC1(C(O)c2ccc(F)cc2)CC1` (single isomer, unassigned) [Example 308, 3-(2-amino-[1,2,4]triazolo[1,5-a]pyridin-7-yl)-2-fluoro-N-((1-((4-fluorophenyl) (hydroxy)methyl)cyclopropyl)methyl)-6-(methyl-d3)benzamide], the IC50 was determined as 12 nM in test [1] (setting [3]) and 9 nM in test [2] (setting [4]).

Take `Cc1ccc(-c2ccn3nc(N)nc3c2)c(F)c1C(=O)NCCC(O)C1CCCCC1` (stereo not shown) [Example 40, 3-(2-amino-[1,2,4]triazolo[1,5-a]pyridin-7-yl)-N-(3-cyclohexyl-3-hydroxypropyl)-2-fluoro-6-methylbenzamide]: the results for the IC50 in test [1] (setting [3]) and in test [2] (setting [5]) were 3.8 nM and 1.5 nM, respectively.

For the compound `Cc1ccc(C(O)C(F)(F)CNC(=O)c2c(Cl)ccc(-c3ccn4nc(N)nc4c3)c2F)c(F)c1` (stereo not shown) [Example 182, 3-(2-amino-[1,2,4]triazolo[1,5-a]pyridin-7-yl)-6-chloro-N-(2,2-difluoro-3-(2-fluoro-4-methylphenyl)-3-hydroxypropyl)-2-fluorobenzamide], the IC50 is 1.2 nM in test [1] (setting [3]) and 2.9 nM in test [2] (setting [4]).

In the case of `Cc1ccc(-c2ccn3nc(N)nc3c2)c(F)c1C(=O)NCC(F)(F)C(O)(c1ccc(F)cc1)C(F)F` (stereo not shown) [Example 274, 3-(2-amino-[1,2,4]triazolo[1,5-a]pyridin-7-yl)-2-fluoro-6-methyl-N-(2,2,4,4-tetrafluoro-3-(4-fluorophenyl)-3-hydroxybutyl)benzamide], the IC50 came out at 19 nM in test [1] (setting [3]) and 0.7 nM in test [2] (setting [5]).

As to `Cc1cccc(C(O)C(F)(F)CNC(=O)c2c(Cl)ccc(-c3ccn4nc(N)nc4c3)c2F)c1` (stereo not shown) [Example 174, 3-(2-amino-[1,2,4]triazolo[1,5-a]pyridin-7-yl)-6-chloro-N-(2,2-difluoro-3-hydroxy-3-(m-tolyl)propyl)-2-fluorobenzamide], the IC50 is 2.8 nM in test [1] (setting [3]) and 1.4 nM in test [2] (setting [4]).

Turning to `Cc1cc(F)c(-c2ccn3nc(N)nc3c2)cc1C(=O)NCC(F)(F)C(C)(O)c1ccc(Cl)cc1` (single isomer, unassigned) [Example 225, 5-(2-amino-[1,2,4]triazolo[1,5-a]pyridin-7-yl)-N-(3-(4-chlorophenyl)-2,2-difluoro-3-hydroxybutyl)-4-fluoro-2-methylbenzamide], the IC50 in test [1] (setting [3]) came to 19 nM; in test [2] (setting [5]) it was 3.8 nM.

One may read the IC50 as the midpoint of a concentration-inhibition curve.
